Columns and labels:
Format in all cases: in vivo, rat
[1] = system: rats with spinal nerve ligature (Chung neuropathic pain model); test: Chung spinal nerve ligation (L5 and L6) neuropathic pain model, tactile stimulation with electronic Von Frey probe (Example 2)
Source text: (§1) The Chung neuropathic pain model (Kim and Chung, Pain, 50: 355-363, 1992), employs spinal nerve ligation (SNL) in a rat. Tight ligature of spinal nerves in a rat is associated with hyperalgesia, allodynia and spontaneous pain. Antihyperalgesics reduce these chronic signs of pain hypersensitivity. Thus, the Chung model permits testing of the antihyperalgesic activity of compounds in rats with neuropathic pain. The Chung model constitutes a model for peripheral neuropathic pain in humans, and was employed as follows.
(§2) Male Rj: Wistar (Han) rats, weighing 264-369 g at the beginning of the experiment, were obtained from Elevage Janvier, 53940 Le Genest-Saint-Isle, France. The rats were acclimatized to laboratory conditions for at least 5 days before the surgery phase of the experiment. The rats were housed in groups of five in macrolon cages (41×25×14 cm) on wood litter (Litalabo—SPPS, 95100 Argenteuil, France) with free access to food (code 113—SAFE, 91360 Epinay-sur-Orge, France) and water until tested. The animal houses were maintained under artificial lighting (12 hours) between 7:00 AM and 7:00 PM in a controlled ambient temperature of 21±3° C., and with relative humidity maintained at 40-70%.
(§3) Rats (264-369 g) were anesthetized with sodium pentobarbital (50 mg/kg i.p.), and an incision at the L4-S2 level was made to expose the left L5 and L6 spinal nerves. A ligature was tied tightly around each nerve. The wound was then sutured. The rats received an i.m. injection of 50,000 IU penicillin G and were allowed to recover. At least 2 weeks after the surgery, when the chronic state was fully installed, rats were submitted consecutively to tactile and thermal stimulation of both the non-lesioned and the lesioned hindpaws.
(§4) Doses of OPC-14523 were prepared in stock solutions (weight per volume, W/V), then in dilutions (volume per volume, V/V), as appropriate. The compound was dispersed in 0.5% tragacanth in distilled water. Morphine was dissolved in physiological saline as a reference standard for treatment of pain. The solutions for the test and reference substances were prepared fresh on the day of the experiment.
(§5) The vehicle, OPC-14523, and reference (morphine) compound were each administered in a volume of 5 ml/kg body weight. The doses of OPC-14523 were expressed in mg of substance per kg body weight and administered orally (p.o.). The vehicle control was also administered orally. The dose of morphine was expressed in mg of hydrochloride salt per kg body weight and administered i.p.
(§6) Each animal was tested at 30 minutes, 1 hour, 2 hours and 4 hours after the administration of a substance. Testing occurred in the morning.
(§7) To evaluate chronic drug administration and hypersensitivity induction, animals received a second substance treatment in the afternoon, after acute testing. The animals then received twice-daily substance treatment for an additional 9 days. To test for induction of hypersensitivity, the animals were tested, on the ninth day, 30 minutes before the first substance administration in the morning. The effect of chronic administration was tested on the tenth day 30 minutes, 1 hour, 2 hours and 4 hours after the administration of the substance in the morning.
(§8) For tactile stimulation, the animal was placed under an inverted Plexiglas® box (17×11×14 cm) on a grid floor. The tip of an electronic Von Frey probe (Bioseb, Model 1610, Chaville, France) was applied with increasing pressure to the non-lesioned hindpaw or the lesioned hindpaw. The force required to induce paw withdrawal was automatically recorded. This procedure was carried out three times for each paw, and the mean force per paw was calculated to provide basic scores per animal.
Prior to receiving drug treatment, all animals were submitted to tactile stimulation and assigned to treatment groups, matched on the basis of their pain response. Each treatment group consisted of eight rats. The testing was performed blind. […]

[2] = system: rats with spinal nerve ligature (Chung neuropathic pain model); test: Chung spinal nerve ligation (L5 and L6) neuropathic pain model, thermal stimulation (Example 2); settings: for change of paw-withdrawal latency vs vehicle: morphine 16 mg/kg i.p.
Source text: as §1, §2, §3, §4, §5, §6, §7
An apparatus (Ugo Basile, Product reference: 7371, Comerio, Italy) consisted of six individual Plexiglas® boxes (17×11×14 cm) placed upon an elevated glass floor. A rat was placed in the box and left free to habituate for 10 minutes. Then, a mobile infrared radiant source was focused under the non-lesioned and lesioned hindpaws. The paw-withdrawal latencies were automatically recorded. Paw withdrawal interrupts the reflected radiation and switches off the counter and the light source. In order to prevent tissue damage, the test was terminated after 45 seconds if no reaction was noted.
Prior to receiving drug treatment, all animals were submitted to tactile stimulation and assigned to treatment groups, matched on the basis of their pain response. […]

[3] = system: rats with spinal nerve ligature (Chung neuropathic pain model); test: Chung neuropathic pain model, tactile stimulation, second experiment (Example 3); settings: acute, morphine 128 mg/kg p.o.; for change of force inducing paw withdrawal vs vehicle: lesioned paw
Protocol: as §8
(§9) The rats used in this experiment were the same rats used in Example 2. The materials and methods for this experiment were identical to those for Example 2 with the following exceptions: there was a 1-week washout between the two experiments, and the rats weighed 290-403 g at the start of this experiment. Prior to receiving drug treatment, all animals were submitted to tactile stimulation and assigned to treatment groups matched on the basis of their pain response. No account was taken of the treatment administered during the first experiment in assigning animals to treatment groups for this experiment.
(§10) All of the substances were administered orally. Morphine, dissolved in distilled water, was administered at 128 mg/kg dose p.o. Rats were tested 30 minutes, 1 hour, 2 hours, and 4 hours after administration of the substances.

[4] = system: rats with spinal nerve ligature (Chung neuropathic pain model); test: Chung neuropathic pain model, cold allodynia on cold plate (Example 3); settings: morphine 128 mg/kg p.o.; for change of total number of paw withdrawal responses: cold plate
Source text: as §9, §10
Behavioral testing was carried out by measuring cold allodynia using an apparatus consisting of a cold plate maintained at 4±1° C. Rats were individually placed on the cold plate for a period of 5 minutes. The latency to the first paw withdrawal response and the number and total duration of withdrawal responses in 5 minutes were recorded for both the lesioned and the non-lesioned hindpaws.

[5] = hypersensitivity test after 8 days of twice daily administration, morphine

CN1CC[C@]23c4c5ccc(O)c4O[C@H]2[C@@H](O)C=C[C@H]3[C@H]1C5 [Morphine, morphine, reference compound]
change of force inducing paw withdrawal vs vehicle ([1]; acute, morphine 16 mg/kg i.p., lesioned paw, 30 minutes): +206%
change of force inducing paw withdrawal vs vehicle ([1]; acute, morphine 16 mg/kg i.p., lesioned paw, 1 hour): +124%
effect on force inducing paw withdrawal ([1]; acute, morphine 16 mg/kg i.p., lesioned paw, 2 hours): tended to increase
effect on force inducing paw withdrawal ([1]; acute, morphine 16 mg/kg i.p., non-lesioned paw): no effects
change of force inducing paw withdrawal vs vehicle ([1]; chronic, day 10, morphine, lesioned paw, 30 minutes, p<0.01): +86%
change of force inducing paw withdrawal vs vehicle ([1]; chronic, day 10, morphine, lesioned paw, 1 hour, p<0.001): +223%
change of force inducing paw withdrawal vs vehicle ([1]; chronic, day 10, morphine, lesioned paw, 2 hours, p=0.09): −50%
effect on force inducing paw withdrawal ([1]; chronic, day 10, morphine, non-lesioned paw): weak, variable effects
Force Inducing Paw Withdrawal (g) Lesioned Paw [1, 5]: 15.1 (NS) g
Force Inducing Paw Withdrawal (g) Non-lesioned Paw [1, 5]: 73.7 (NS) g
effect on force inducing paw withdrawal vs vehicle control ([1]; hypersensitivity test, repeated treatment with morphine, lesioned or non-lesioned paw): no significant effects
change of paw-withdrawal latency vs vehicle ([2]; acute, lesioned paw, 30 minutes): +132%
change of paw-withdrawal latency vs vehicle ([2]; acute, lesioned paw, 1 hour): +121%
change of paw-withdrawal latency vs vehicle ([2]; acute, lesioned paw, 4 hours): +204%
change of paw-withdrawal latency vs vehicle ([2]; acute, non-lesioned paw, 30 minutes, p<0.05): +15%
change of paw-withdrawal latency vs vehicle ([2]; chronic, lesioned paw, 30 minutes, p<0.05): +108%
change of paw-withdrawal latency vs vehicle ([2]; chronic, lesioned paw, 1 hour, p<0.05): 93%
change of paw-withdrawal latency vs vehicle ([2]; chronic, non-lesioned paw, 2 hours, p<0.05): −24%
change of paw-withdrawal latency vs vehicle ([2]; chronic, non-lesioned paw, 4 hours, p<0.05): −23%
Paw Withdrawal Latency (s) Lesioned Paw [2, 5]: 11.7 (NS) s
Paw Withdrawal Latency (s) Non-lesioned Paw [2, 5]: 34.5 (NS) s
change of force inducing paw withdrawal vs vehicle ([3]; 30 minutes, p<0.05): +137%
change of force inducing paw withdrawal vs vehicle ([3]; 1 hour, p<0.01): +198%
change of force inducing paw withdrawal vs vehicle ([3]; 2 hours, p=0.05): +168%
effect on force inducing paw withdrawal ([3]; non-lesioned paw): no effects
effect on paw-withdrawal latency of the first withdrawal ([4]; cold plate 4°C, not statistically significant): tended to increase
change of total number of paw withdrawal responses ([4]; 30 minutes, p<0.001): −61%
change of total number of paw withdrawal responses ([4]; 1 hour, p<0.05): −65%
change of total number of paw withdrawal responses ([4]; 2 hours, p<0.01): −51%
change of total number of paw withdrawal responses ([4]; 4 hours, p<0.01): −56%
